Publication PMC9017385, “Pharmacokinetics of Temsavir, the Active Moiety of the HIV-1 Attachment Inhibitor Prodrug, Fostemsavir, Coadministered with Cobicistat, Etravirine, Darunavir/Cobicistat, or Darunavir/Ritonavir with or without Etravirine in Healthy Participants” (Antimicrobial Agents and Chemotherapy, 2022)

What was measured:
[1] = Study 206281: plasma PK of DRV, RTV and ETR with or without FTR
Protocol: (§1) Participants were randomly assigned to one of three cohorts per a computer-generated randomization scheme. • Cohort 1: Participants received FTR at 600 mg twice daily (BID) on days 1 to 4. […] After a 2-day washout (days 5 and 6), participants received ETR at 200 mg BID for 10 days (days 7 to 16) followed by FTR at 600 mg BID with ETR at 200 mg BID for 10 days (days 17 to 26). • Cohort 3: Participants received FTR at 600 mg BID on days 1 to 4.
(§2) Eligible participants were admitted to the clinical facility on day −1 of each study. […] Physical examinations, measurements of vital signs, 12-lead ECGs, and clinical laboratory evaluations were performed, and participants were closely monitored for AEs and SAEs, throughout both studies.
(§3) (i) Bioanalytical methods and PK analysis. […] The lower limit of quantification and the upper limit of quantification for the analysis of TMR in both studies were 5 ng/mL and 5,000 ng/mL, respectively.
(§4) (ii) PK analysis. For both studies, individual participant PK parameter values were derived by noncompartmental methods with a validated PK analysis program using actual times. […] Cmax, Tmax, C12, and C24 were recorded directly from experimental observations and AUCtau was calculated by mixed log-linear trapezoidal summations.
(§5) SAS software version 9.2 (SAS Institute, Inc., Cary, North Carolina) was used for all statistical analyses, tabulations, and graphical presentations. For all treatment comparisons, a linear mixed-effect model was fitted to the log-transformed data with treatment as fixed effect and measurements within each participant as repeated measures, for use in the estimation of effects and the construction of CIs. Point estimates and 90% CIs for differences on the log scale were exponentiated to obtain estimates for GMRs and respective 90% CIs on the original scale. […] FTR administered alone was the reference treatment for both studies.

[2] = Study 206281: safety, adverse events; format: in vivo, human; conditions: A fostemsavir 600 mg BID, B DRV/r 600/100 mg BID, C ETR 200 mg BID
Protocol: as §1, §2

[3] = Study 206281: plasma PK of temsavir after FTR alone or with DRV/r, ETR, or DRV/r plus ETR; format: in vivo, human
Protocol: as §1, §2, §3, §4, §5

[4] = Study 206285: plasma PK of temsavir after FTR alone or with DRV/c or COBI; format: in vivo, human
Protocol: as §2, §3, §4, §5

[5] = QT prolongation at supratherapeutic FTR dose; format: in vivo, human; conditions: supratherapeutic FTR 2,400 mg BID
P-glycoprotein (P-gp) = tested on: P-glycoprotein (P-gp); parameters: method as in earlier work; conditions: preclinical studies; cited from earlier work
[6] = tested on: breast cancer resistance protein (BCRP); conditions: not told; cited from earlier work
HIV-1 = tested on: HIV-1; parameters: method as in PMID 32212519; conditions: through 8 days of FTR functional monotherapy with failing regimen; HTE HIV-1-infected participants, randomized cohort; P < 0.0001; cited from earlier work
[7] = Study 206285: safety, adverse events
Protocol: Participants were sequentially enrolled to two cohorts. • Cohort 1: Participants received FTR at 600 mg BID on days 1 to 4. […] Participants then received FTR at 600 mg BID plus COBI at 150 mg QD on days 5 to 14 (Fig. 4B).

[8] = FTR with DRV/r + ETR vs DRV/r plus ETR, study 206281 cohort 3
[9] = DRV/r plus ETR with FTR vs DRV/r plus ETR, study 206281 cohort 3
[10] = ETR with FTR vs ETR alone, study 206281 cohort 2
[11] = FTR plus DRV/r plus ETR vs DRV/r plus ETR, study 206281 cohort 3
[12] = FTR with DRV/r vs DRV/r, study 206281 cohort 1
[13] = FTR coadministered with DRV/r and ETR vs FTR alone, study 206281 cohort 3
[14] = FTR coadministered with DRV/r vs FTR alone, study 206281 cohort 1
[15] = FTR coadministered with ETR vs FTR alone, study 206281 cohort 2
[16] = FTR coadministered with ETR vs FTR alone, study 206281 cohort 2, listed as TMR
[17] = FTR coadministered with COBI vs FTR alone, study 206285 cohort 2
[18] = FTR coadministered with DRV and COBI (DRV/c) vs FTR alone, study 206285 cohort 1

Structure (SMILES): CC(C)CN(C[C@@H](O)[C@H](Cc1ccccc1)NC(=O)O[C@H]1CO[C@H]2OCC[C@H]21)S(=O)(=O)c1ccc(N)cc1 [DRV]
- decrease in DRV AUCtau [1, 8]: 6%
- decrease in DRV C12 [1, 8]: 12%
- decrease in DRV Cmax [1, 8]: 5%

Structure (SMILES): Cc1cc(C#N)cc(C)c1Oc1nc(Nc2ccc(C#N)cc2)nc(N)c1Br [ETR, reference compound]
- increase in ETR AUCtau [1, 9]: 28%
- increase in ETR C12 [1, 9]: 28%
- increase in ETR Cmax [1, 9]: 18%
- increase in ETR AUCtau [1, 10]: 11%
- increase in ETR C12 [1, 10]: 14%
- increase in ETR Cmax [1, 10]: 11%
- AUC ([1]; human, plasma, oral, 200 mg): 7820 ng·h/mL
- Cmax ([1]; human, plasma, oral, 200 mg): 846 ng/mL
- concentration at 12 h ([1]; human, plasma, oral, 200 mg): 457 ng/mL
- Abdominal distension [2]: 0 No. of patients (%)
- Aphthous stomatitis [2]: 0 No. of patients (%)
- Back pain [2]: 0 No. of patients (%)
- Diarrhea [2]: 0 No. of patients (%)
- Dizziness [2]: 0 No. of patients (%)
- Drug eruption [2]: 2 (14.3) No. of patients (%)
- Dry mouth [2]: 0 No. of patients (%)
- Fatigue [2]: 0 No. of patients (%)
- Headache [2]: 0 No. of patients (%)
- Muscle spasms [2]: 0 No. of patients (%)
- Nausea [2]: 0 No. of patients (%)
- Pruritus [2]: 0 No. of patients (%)
- Pruritus generalized [2]: 1 (7.1) No. of patients (%)
- Somnolence [2]: 0 No. of patients (%)
- Subjects with any AE [2]: 4 (28.6) No. of patients (%)

Structure (SMILES): CC(C)c1nc(CN(C)C(=O)N[C@H](C(=O)N[C@@H](Cc2ccccc2)C[C@H](O)[C@H](Cc2ccccc2)NC(=O)OCc2cncs2)C(C)C)cs1 [RTV]
- increase in RTV AUCtau [1, 11]: 9%
- increase in RTV C12 [1, 11]: 7%
- increase in RTV Cmax [1, 11]: 14%
- change in RTV Cmax [1, 12]: no meaningful change
- increase in RTV AUCtau [1, 12]: 15%
- increase in RTV C12 [1, 12]: 19%

Structure (SMILES): COc1cnc(-n2cnc(C)n2)c2[nH]cc(C(=O)C(=O)N3CCN(C(=O)c4ccccc4)CC3)c12 [Temsavir]
- increase in TMR AUCtau [3, 13]: 34%
- increase in TMR C12 (Ctau in abstract) [3, 13]: 33%
- increase in TMR Cmax [3, 13]: 53%
- increase in TMR AUCtau [3, 14]: 63%
- increase in TMR C12 (Ctau in abstract) [3, 14]: 88%
- increase in TMR Cmax [3, 14]: 52%
- decrease in TMR exposures ([3]; FTR coadministered with ETR): approximately 50%
- decrease in TMR AUCtau [3, 15]: 50%
- decrease in TMR C12 (Ctau in abstract) [3, 15]: ~50%
- decrease in TMR Cmax [3, 15]: ~50%
- decrease in TMR C12 (Ctau in abstract) [3, 16]: 52%
- decrease in TMR Cmax [3, 16]: 48%
- increase in TMR AUCtau [4, 17]: 93%
- increase in TMR C12 (Ctau in abstract) [4, 17]: 136%
- increase in TMR Cmax [4, 17]: 71%
- increase in TMR AUCtau [4, 18]: 97%
- increase in TMR C12 (Ctau in abstract) [4, 18]: 124%
- increase in TMR Cmax [4, 18]: 79%
- fold by which exposures with TMR Cmax-driven QT prolongation exceed geometric mean TMR exposures of the current studies [5]: > 2 fold
- P-glycoprotein (P-gp) substrate (P-glycoprotein (P-gp)): substrate
- BCRP substrate [6]: substrate

Structure (SMILES): COc1cnc(-n2cnc(C)n2)c2c1c(C(=O)C(=O)N1CCN(C(=O)c3ccccc3)CC1)cn2COP(=O)(O)O [Fostemsavir]
- Abdominal distension [2]: 0 No. of patients (%)
- Aphthous stomatitis [2]: 0 No. of patients (%)
- Back pain [2]: 0 No. of patients (%)
- Diarrhea [2]: 0 No. of patients (%)
- Dizziness [2]: 0 No. of patients (%)
- Drug eruption [2]: 0 No. of patients (%)
- Dry mouth [2]: 1 (2.2) No. of patients (%)
- Fatigue [2]: 0 No. of patients (%)
- Headache [2]: 1 (2.2) No. of patients (%)
- Muscle spasms [2]: 0 No. of patients (%)
- Nausea [2]: 1 (2.2) No. of patients (%)
- Pruritus [2]: 1 (2.2) No. of patients (%)
- Pruritus generalized [2]: 0 No. of patients (%)
- Somnolence [2]: 0 No. of patients (%)
- Subjects with any AE [2]: 6 (13.0) No. of patients (%)
- adjusted mean decline in HIV-1 RNA (HIV-1): 0.8 log10 copies/mL
- Back pain ([7]; study 206285 cohort 1): 1 (6.3) No. of patients (%)
- Constipation ([7]; study 206285 cohort 1): 0 No. of patients (%)
- Cough ([7]; study 206285 cohort 1): 0 No. of patients (%)
- Headache ([7]; study 206285 cohort 1): 3 (18.8) No. of patients (%)
- Myalgia ([7]; study 206285 cohort 1): 0 No. of patients (%)
- Nausea ([7]; study 206285 cohort 1): 1 (6.3) No. of patients (%)
- Neutrophil count decreased ([7]; study 206285 cohort 1): 0 No. of patients (%)
- Oropharyngeal pain ([7]; study 206285 cohort 1): 2 (12.5) No. of patients (%)
- Pain ([7]; study 206285 cohort 1): 0 No. of patients (%)
- Participants with AE ([7]; study 206285 cohort 1): 6 (37.5) No. of patients (%)
- Vomiting ([7]; study 206285 cohort 1): 1 (6.3) No. of patients (%)
- WBC decreased ([7]; study 206285 cohort 1): 0 No. of patients (%)
- Back pain ([7]; study 206285 cohort 2): 1 (6.3) No. of patients (%)
- Constipation ([7]; study 206285 cohort 2): 0 No. of patients (%)
- Cough ([7]; study 206285 cohort 2): 0 No. of patients (%)
- Headache ([7]; study 206285 cohort 2): 1 (6.3) No. of patients (%)
- Myalgia ([7]; study 206285 cohort 2): 0 No. of patients (%)
- Nausea ([7]; study 206285 cohort 2): 0 No. of patients (%)
- Neutrophil count decreased ([7]; study 206285 cohort 2): 0 No. of patients (%)
- Oropharyngeal pain ([7]; study 206285 cohort 2): 0 No. of patients (%)
- Pain ([7]; study 206285 cohort 2): 0 No. of patients (%)
- Participants with AE ([7]; study 206285 cohort 2): 3 (18.8) No. of patients (%)
- Vomiting ([7]; study 206285 cohort 2): 0 No. of patients (%)
- WBC decreased ([7]; study 206285 cohort 2): 0 No. of patients (%)
